Activity and IC50 data for two compounds are collected here from ChEMBL document CHEMBL1159210, “The arenarans, sesquiterpene ethers from the marine sponge Dysidea arenaria” (J Nat Prod, 1995).

Assay type in all cases: functional, cell-based
For one assay, the system named is A549. Briefly: Cytotoxicity against human A549 cells.
Another assay deals with HT-29. Kind of assay: Cytotoxicity against human HT-29 cells.
In the next assay the test system is P388. Kind of assay: Cytotoxicity against mouse P388 cells.
In the next assay the test system is HCT-29. Briefly: Cytotoxicity against human HCT29 cells.

Molecules are shown by their SMILES. Values after ≈ are worked out from the molar mass of the structure shown. Active and inactive are the calls of the source. The rule behind the calls is not given here.

Consider `CC1(C)CCC[C@]2(C)OC[C@H]3O[C@@]3(C)CC[C@@H]12`, for which the result with A549, with HT-29, with P388 and with HCT-29 was inactive.
A word on the IC50: it is the concentration that inhibits the measured activity by half. `C/C1=C/CO[C@@]2(C)CCCC(C)(C)[C@@H]2CC1` [ARENARAN A]: the IC50 in the assay on A549 is 9.51 µg/mL (≈ 42.8 µM); in the assay with HT-29 it was 9.11 µg/mL (≈ 41 µM); in the assay with P388, 3.17 µg/mL (≈ 14.3 µM); in the assay with HCT-29, 5.28 µg/mL (≈ 23.7 µM).
